{"source": "patent US20110046187A1", "about": "“ASSESSING CONGESTIVE HEART RISK IN PATIENTS TREATED OR POTENTIALLY TO BE TREATED WITH A PEROXISOME-PROLIFERATOR-ACTIVATOR-RECEPTOR-GAMMA AGONIST OR A THIAZOLIDINEDIONE” (BG MEDICINE, INC., priority 2007, published 2011)", "format_in_all_cases": "in vivo", "key": {"Galectin-3 mRNA": {"tested_on": "Galectin-3 mRNA", "test": "Transcriptional profiling (Affymetrix GeneChip) of Galectin-3 mRNA levels in mouse T2DM animal models (db/db and HFD)", "set-up": "key to Direction & Significance, Galectin-3 mRNA: Significant difference between the Group A and Group B median values for Galectin-3 mRNA; NS: No Significant Difference based on statistical comparison of Galectin-3 mRNA values in Group A and Group B", "details": "for Direction & Significance, Galectin-3 mRNA / MFC (median fold change) Galectin-3 mRNA: drug/Disease (vehicle), Day 14; for MFC (median fold change) Galectin-3 mRNA: oral twice/day 14 days; for Effect on Gal-3 mRNA levels in adipose tissue, muscle or liver: mouse models of T2DM (text summary of Table 1)"}, "BNP mRNA [1]": {"tested_on": "BNP mRNA", "test": "Transcriptional profiling (Affymetrix GeneChip) of BNP mRNA levels in mouse T2DM animal models (db/db and HFD)", "set-up": "key to Direction & Significance, BNP mRNA: Significant difference between the Group A and Group B median values for BNP mRNA; NS: No Significant Difference based on statistical comparison of Galectin-3 mRNA values in Group A and Group B", "details": "drug/Disease (vehicle); for MFC (median fold change) BNP mRNA: oral twice/day 14 days; for Direction & Significance, BNP mRNA: Day 14"}, "BNP mRNA [2]": {"tested_on": "BNP mRNA", "test": "BNP mRNA level in muscle, Clinical, Rosi/Placebo"}, "[3]": {"details": "Adipose, HFD-06 high fat diet mouse"}, "[4]": {"details": "Liver, HFD-06 high fat diet mouse"}, "[5]": {"details": "Muscle, HFD-06 high fat diet mouse"}, "[6]": {"details": "Adipose, HFD-07 high fat diet mouse"}, "[7]": {"details": "Liver, HFD-07 high fat diet mouse"}, "[8]": {"details": "Muscle, HFD-07 high fat diet mouse"}}, "note": "Where a name gives a salt, the structure may show the parent alone.", "data": [{"smiles": "COc1ccc(Cl)cc1C(=O)NCCc1ccc(S(=O)(=O)NC(=O)NC2CCCCC2)cc1", "note": "[Glyburide, glyburide]", "values": [{"measurement": "Direction & Significance, Galectin-3 mRNA", "setting": "Galectin-3 mRNA; Adipose, DB-07 db/db mouse", "value": "Increase NS"}, {"measurement": "MFC (median fold change) Galectin-3 mRNA", "setting": "Galectin-3 mRNA; Adipose, DB-07 db/db mouse", "value": 1.10}, {"measurement": "Direction & Significance, Galectin-3 mRNA", "setting": "Galectin-3 mRNA; [3]", "value": "Increase NS"}, {"measurement": "MFC (median fold change) Galectin-3 mRNA", "setting": "Galectin-3 mRNA; [3]", "value": 1.04}, {"measurement": "Direction & Significance, Galectin-3 mRNA", "setting": "Galectin-3 mRNA; Liver, DB-07 db/db mouse", "value": "Increase NS"}, {"measurement": "MFC (median fold change) Galectin-3 mRNA", "setting": "Galectin-3 mRNA; Liver, DB-07 db/db mouse", "value": 1.01}, {"measurement": "Direction & Significance, Galectin-3 mRNA", "setting": "Galectin-3 mRNA; [4]", "value": "Increase NS"}, {"measurement": "MFC (median fold change) Galectin-3 mRNA", "setting": "Galectin-3 mRNA; [4]", "value": 1.02}, {"measurement": "Direction & Significance, Galectin-3 mRNA", "setting": "Galectin-3 mRNA; Muscle, DB-07 db/db mouse", "value": "Increase NS"}, {"measurement": "MFC (median fold change) Galectin-3 mRNA", "setting": "Galectin-3 mRNA; Muscle, DB-07 db/db mouse", "value": 1.19}, {"measurement": "Direction & Significance, Galectin-3 mRNA", "setting": "Galectin-3 mRNA; [5]", "value": "Decrease NS"}, {"measurement": "MFC (median fold change) Galectin-3 mRNA", "setting": "Galectin-3 mRNA; [5]", "value": 0.87}, {"measurement": "Effect on Gal-3 mRNA levels in adipose tissue, muscle or liver", "setting": "Galectin-3 mRNA", "value": "Neither glyburide nor metformin treatment of the mouse models of T2DM had any significant effect"}, {"measurement": "MFC (median fold change) BNP mRNA", "setting": "BNP mRNA [1]; Adipose, DB-07 db/db mouse", "value": 1.02}, {"measurement": "MFC (median fold change) BNP mRNA", "setting": "BNP mRNA [1]; [3]", "value": 1.16}, {"measurement": "Direction & Significance, BNP mRNA", "setting": "BNP mRNA [1]; Adipose, DB-07 db/db mouse", "value": "Increase NS"}, {"measurement": "Direction & Significance, BNP mRNA", "setting": "BNP mRNA [1]; [3]", "value": "Increase NS"}, {"measurement": "MFC (median fold change) BNP mRNA", "setting": "BNP mRNA [1]; Liver, DB-07 db/db mouse", "value": 0.85}, {"measurement": "MFC (median fold change) BNP mRNA", "setting": "BNP mRNA [1]; [4]", "value": 0.93}, {"measurement": "Direction & Significance, BNP mRNA", "setting": "BNP mRNA [1]; Liver, DB-07 db/db mouse", "value": "Decrease NS"}, {"measurement": "Direction & Significance, BNP mRNA", "setting": "BNP mRNA [1]; [4]", "value": "Decrease NS"}, {"measurement": "MFC (median fold change) BNP mRNA", "setting": "BNP mRNA [1]; Muscle, DB-07 db/db mouse", "value": 0.83}, {"measurement": "MFC (median fold change) BNP mRNA", "setting": "BNP mRNA [1]; [5]", "value": 3.17}, {"measurement": "Direction & Significance, BNP mRNA", "setting": "BNP mRNA [1]; Muscle, DB-07 db/db mouse", "value": "Decrease NS"}, {"measurement": "Direction & Significance, BNP mRNA", "setting": "BNP mRNA [1]; [5]", "value": "Increase NS"}]}, {"smiles": "CN(C)C(=N)N=C(N)N", "note": "[Metformin, metformin]", "values": [{"measurement": "Direction & Significance, Galectin-3 mRNA", "setting": "Galectin-3 mRNA; Adipose, DB-07 db/db mouse", "value": "Increase NS"}, {"measurement": "MFC (median fold change) Galectin-3 mRNA", "setting": "Galectin-3 mRNA; Adipose, DB-07 db/db mouse", "value": 1.10}, {"measurement": "Direction & Significance, Galectin-3 mRNA", "setting": "Galectin-3 mRNA; [3]", "value": "Increase NS"}, {"measurement": "MFC (median fold change) Galectin-3 mRNA", "setting": "Galectin-3 mRNA; [3]", "value": 1.08}, {"measurement": "Direction & Significance, Galectin-3 mRNA", "setting": "Galectin-3 mRNA; Liver, DB-07 db/db mouse", "value": "Increase NS"}, {"measurement": "MFC (median fold change) Galectin-3 mRNA", "setting": "Galectin-3 mRNA; Liver, DB-07 db/db mouse", "value": 1.06}, {"measurement": "Direction & Significance, Galectin-3 mRNA", "setting": "Galectin-3 mRNA; [4]", "value": "Increase NS"}, {"measurement": "MFC (median fold change) Galectin-3 mRNA", "setting": "Galectin-3 mRNA; [4]", "value": 1.08}, {"measurement": "Direction & Significance, Galectin-3 mRNA", "setting": "Galectin-3 mRNA; Muscle, DB-07 db/db mouse", "value": "Decrease NS"}, {"measurement": "MFC (median fold change) Galectin-3 mRNA", "setting": "Galectin-3 mRNA; Muscle, DB-07 db/db mouse", "value": 0.90}, {"measurement": "Direction & Significance, Galectin-3 mRNA", "setting": "Galectin-3 mRNA; [5]", "value": "Decrease NS"}, {"measurement": "MFC (median fold change) Galectin-3 mRNA", "setting": "Galectin-3 mRNA; [5]", "value": 0.82}, {"measurement": "Effect on Gal-3 mRNA levels in adipose tissue, muscle or liver", "setting": "Galectin-3 mRNA", "value": "Neither glyburide nor metformin treatment of the mouse models of T2DM had any significant effect"}, {"measurement": "MFC (median fold change) BNP mRNA", "setting": "BNP mRNA [1]; Adipose, DB-07 db/db mouse", "value": 0.87}, {"measurement": "MFC (median fold change) BNP mRNA", "setting": "BNP mRNA [1]; [3]", "value": 0.67}, {"measurement": "Direction & Significance, BNP mRNA", "setting": "BNP mRNA [1]; Adipose, DB-07 db/db mouse", "value": "Decrease NS"}, {"measurement": "Direction & Significance, BNP mRNA", "setting": "BNP mRNA [1]; [3]", "value": "Decrease NS"}, {"measurement": "MFC (median fold change) BNP mRNA", "setting": "BNP mRNA [1]; Liver, DB-07 db/db mouse", "value": 0.88}, {"measurement": "MFC (median fold change) BNP mRNA", "setting": "BNP mRNA [1]; [4]", "value": 1.03}, {"measurement": "Direction & Significance, BNP mRNA", "setting": "BNP mRNA [1]; Liver, DB-07 db/db mouse", "value": "Decrease NS"}, {"measurement": "Direction & Significance, BNP mRNA", "setting": "BNP mRNA [1]; [4]", "value": "Increase NS"}, {"measurement": "MFC (median fold change) BNP mRNA", "setting": "BNP mRNA [1]; Muscle, DB-07 db/db mouse", "value": 1.09}, {"measurement": "MFC (median fold change) BNP mRNA", "setting": "BNP mRNA [1]; [5]", "value": 2.17}, {"measurement": "Direction & Significance, BNP mRNA", "setting": "BNP mRNA [1]; Muscle, DB-07 db/db mouse", "value": "Increase NS"}, {"measurement": "Direction & Significance, BNP mRNA", "setting": "BNP mRNA [1]; [5]", "value": "Increase NS"}]}, {"smiles": "CN(CCOc1ccc(CC2SC(=O)NC2=O)cc1)c1ccccn1", "note": "(centres unmarked) [Rosi, rosiglitazone maleate]", "values": [{"measurement": "Direction & Significance, Galectin-3 mRNA", "setting": "Galectin-3 mRNA; Adipose, DB-06 db/db mouse", "value": "Signif"}, {"measurement": "MFC (median fold change) Galectin-3 mRNA", "setting": "Galectin-3 mRNA; Adipose, DB-06 db/db mouse", "value": 0.55}, {"measurement": "Direction & Significance, Galectin-3 mRNA", "setting": "Galectin-3 mRNA; [6]", "value": "Signif"}, {"measurement": "MFC (median fold change) Galectin-3 mRNA", "setting": "Galectin-3 mRNA; [6]", "value": 0.64}, {"measurement": "Direction & Significance, Galectin-3 mRNA", "setting": "Galectin-3 mRNA; Liver, DB-06 db/db mouse", "value": "Signif"}, {"measurement": "MFC (median fold change) Galectin-3 mRNA", "setting": "Galectin-3 mRNA; Liver, DB-06 db/db mouse", "value": 1.33}, {"measurement": "MFC (median fold change) Galectin-3 mRNA", "setting": "Galectin-3 mRNA; [7]", "value": 1.07}, {"measurement": "Direction & Significance, Galectin-3 mRNA", "setting": "Galectin-3 mRNA; Muscle, DB-06 db/db mouse", "value": "Signif"}, {"measurement": "MFC (median fold change) Galectin-3 mRNA", "setting": "Galectin-3 mRNA; Muscle, DB-06 db/db mouse", "value": 0.87}, {"measurement": "MFC (median fold change) Galectin-3 mRNA", "setting": "Galectin-3 mRNA; [8]", "value": 0.80}, {"measurement": "MFC (median fold change) BNP mRNA", "setting": "BNP mRNA [1]; Adipose, DB-06 db/db mouse", "value": 1.13}, {"measurement": "MFC (median fold change) BNP mRNA", "setting": "BNP mRNA [1]; [6]", "value": 1.29}, {"measurement": "Direction & Significance, BNP mRNA", "setting": "BNP mRNA [1]; [6]", "value": "Signif"}, {"measurement": "MFC (median fold change) BNP mRNA", "setting": "BNP mRNA [1]; Liver, DB-06 db/db mouse", "value": 1.68}, {"measurement": "MFC (median fold change) BNP mRNA", "setting": "BNP mRNA [1]; [7]", "value": 0.77}, {"measurement": "MFC (median fold change) BNP mRNA", "setting": "BNP mRNA [1]; Muscle, DB-06 db/db mouse", "value": 0.58}, {"measurement": "MFC (median fold change) BNP mRNA", "setting": "BNP mRNA [1]; [8]", "value": 1.40}, {"measurement": "MFC (median fold change) BNP mRNA", "setting": "BNP mRNA [2]", "value": 0.63}]}]}
